From PMC11678245, “The Molecular Basis of the Intrinsic and Acquired Resistance to Azole Antifungals in Aspergillus fumigatus” (Journal of Fungi, 2024)
“And” between values parts separate entries of the source, which are not always exact repeats. Equal values may be shown once. Read-outs that look alike come from different tables or passages of the source.

What was measured:
[1] = test system: S. cerevisiae strain ARE (AfCyp51A-6×His, AfCprA2, AfErg6-FLAG); assay: MIC80 susceptibility, strain ARE; assay type: cell-based, Saccharomyces cerevisiae
Procedure: (§1) The susceptibilities of S. cerevisiae strains to antifungal drugs were determined as minimum growth inhibitory concentration (MIC) values in 200 μL SD pH 6.8 [24]. Serial 2-fold dilutions of 100 μL of azole or control drugs in SD pH 6.8 were prepared in a 96-well microtiter plate. A portion of a 2 mL SD pH 6.8 overnight culture of the test strain was inoculated into 3 mL fresh SD pH 6.8 and incubated for 4 to 6 h at 30 °C to generate logarithmic-phase cells. These cells were then diluted with fresh SD pH 6.8 to OD600nm = 0.01 (3 × 10^4 CFU), and 100 μL of this cell suspension was added to microtiter plate wells. Cell growth after 48 h incubation at 30 °C with shaking at 200 rpm was determined at 600 nm using a BioTek™ Synergy™ 2 multi-Mode microplate reader controlled using Gen5™ Data Analysis Software version 3.16.10 (BioTek Instruments, Winooski, VT, USA). MIC80 values (80% growth inhibition in the presence of the test drug compared with the untreated control) for each yeast construct were determined as technical triplicates repeated three times for three separate clones.

[2] = test system: S. cerevisiae strain ARE Y121F (AfCyp51A-6×His Y121F, AfCprA2, AfErg6-FLAG); assay: MIC80 susceptibility, strain Y121F; assay type: cell-based, Saccharomyces cerevisiae
Procedure: as §1

[3] = test system: S. cerevisiae strain ARE T289A (AfCyp51A-6×His T289A, AfCprA2, AfErg6-FLAG); assay: MIC80 susceptibility, strain T289A; assay type: cell-based, Saccharomyces cerevisiae; conditions: for MIC80: ± SD
Procedure: as §1

[4] = test system: S. cerevisiae strain ARE Y121F T289A (AfCyp51A-6×His Y121F T289A, AfCprA2, AfErg6-FLAG); assay: MIC80 susceptibility, strain Y121F T289A; assay type: cell-based, Saccharomyces cerevisiae
Procedure: as §1

[5] = test system: S. cerevisiae strain ARE I301T (AfCyp51A-6×His I301T, AfCprA2, AfErg6-FLAG); assay: MIC80 susceptibility, strain I301T; assay type: cell-based, Saccharomyces cerevisiae; conditions: for MIC80: ± SD
Procedure: as §1

[6] = test system: S. cerevisiae strain BRE (AfCyp51B-6×His, AfCprA2, AfErg6-FLAG); assay: MIC80 susceptibility, strain BRE; assay type: cell-based, Saccharomyces cerevisiae; conditions: strain BRE; for MIC80 / MIC: ± SD; for MIC: 48 h
Procedure: as §1

[7] = test system: S. cerevisiae Y2300 ADΔΔ CYP51 (ScCYP51); assay: MIC80 susceptibility, strain Y2300 (Table S1); assay type: cell-based, Saccharomyces cerevisiae; conditions: Table S1; strain Y2300 ADΔΔ CYP51
Procedure: as §1, with “clones. […]” for “clones.”
(§2) Table S1. Azole susceptibilities of ScCYP51 and ScCYP51 T322I expressed
(§3) Data for each strain was obtained for […] in three biological replicates.

[8] = test system: S. cerevisiae Y2305 ADΔΔ CYP51 T322I (ScCYP51 T322I); assay: MIC80 susceptibility, strain Y2305 (Table S1); assay type: cell-based, Saccharomyces cerevisiae
Procedure: as §1, with “clones. […]” for “clones.”
as §2, §3

[9] = test system: S. cerevisiae strain ADΔΔ (native ScCYP51); assay: MIC80 susceptibility, host strain ADΔΔ; assay type: cell-based; conditions: Saccharomyces cerevisiae, Table 2, SD pH 6.8, 48 h, 30 °C
Procedure: as §1

[10] = test system: S. cerevisiae strain ADLS overexpressing ScCYP51-6×His; assay: MIC80 susceptibility, strain ADLS; assay type: cell-based, Saccharomyces cerevisiae
Procedure: as §1

[11] = test system: S. cerevisiae strain A (AfCyp51A-6×His, native ScCyp51 retained); assay: MIC80 susceptibility, strain A; assay type: cell-based; conditions: Saccharomyces cerevisiae, Table 2, SD pH 6.8, 48 h, 30 °C
Procedure: as §1

[12] = test system: S. cerevisiae strain AR (AfCyp51A-6×His, AfCprA2-6×His); assay: MIC80 susceptibility, strain AR; assay type: cell-based, Saccharomyces cerevisiae; conditions: Saccharomyces cerevisiae, 48 h, pH 6.8
Procedure: as §1

[13] = test system: S. cerevisiae strain BR (AfCyp51B-6×His, AfCprA2-6×His); assay: MIC80 susceptibility, strain BR; assay type: cell-based; conditions: Saccharomyces cerevisiae, 48 h, pH 6.8
Procedure: as §1

AfCYP51B-6×His = molecular target: T1, AfCYP51B-6×His (Aspergillus fumigatus, UniProt E9QY26); assay: Type II binding of azole drugs (difference spectra)
T1 sequence (E9QY26 1-524): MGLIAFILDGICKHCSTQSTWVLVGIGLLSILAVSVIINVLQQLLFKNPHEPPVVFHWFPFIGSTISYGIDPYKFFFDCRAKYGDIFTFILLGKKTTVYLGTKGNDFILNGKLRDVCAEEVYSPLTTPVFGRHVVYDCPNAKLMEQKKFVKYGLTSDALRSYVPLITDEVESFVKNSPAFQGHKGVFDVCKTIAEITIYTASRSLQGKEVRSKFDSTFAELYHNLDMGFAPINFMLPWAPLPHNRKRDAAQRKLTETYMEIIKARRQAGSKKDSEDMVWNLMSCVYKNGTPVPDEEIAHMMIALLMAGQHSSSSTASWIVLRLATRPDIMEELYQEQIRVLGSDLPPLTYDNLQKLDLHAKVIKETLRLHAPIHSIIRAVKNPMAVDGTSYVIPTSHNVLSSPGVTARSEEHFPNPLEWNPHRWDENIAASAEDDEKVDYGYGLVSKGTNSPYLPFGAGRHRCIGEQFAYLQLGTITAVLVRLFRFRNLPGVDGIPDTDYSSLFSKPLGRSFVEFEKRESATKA
Procedure: The concentration of AfCYP51A and AfCYP51B, purified using Ni-NTA affinity chromatography and used for the spectrophotometric type I and type II binding assays, was calculated using an extinction co-efficient of λ417nm = 117 mM^−1 cm^−1 applied to the absolute absorption spectrum of the preparations. In addition, the amount of “active” cytochrome P450 enzyme was determined using the carbon monoxide (CO) binding spectra of these preparations.
Type II binding difference spectra were obtained using 1 μM of affinity-purified CYP51 enzymes. VCZ, PCZ, VT-1161, DCZ, and MCF working solutions were prepared in DMSO, while FLC was prepared in Milli-Q water. Azole drugs were added to the sample cuvette, and corresponding amounts of DMSO or Milli-Q water were added to the reference cuvette. Drug binding curves were plotted using the difference spectrum peak and trough detected in the range of 410–425 nm. Dissociation constants (Kd) were determined by nonlinear regression (Levenberg–Marquardt algorithm) of the difference in absorbance between the peak and trough against the azole concentration using a rearrangement of the Morrison equation or the Hill equation [7]. GraphPad Prism 9.2.0 software was used to identify the best fit for the data.

[14] = Table 3, strain ARE Y121F, ± SD
[15] = Table 3, strain ARE Y121F T289A, ± SD
[16] = Saccharomyces cerevisiae, 48 h, read-out: MIC80
[17] = Saccharomyces cerevisiae, Table 3, strain ARE, ± SD, read-out: MIC80
[18] = Saccharomyces cerevisiae, Table 3, strain ARE Y121F, ± SD, read-out: MIC80
[19] = Saccharomyces cerevisiae, Table 3, strain ARE T289A, read-out: MIC80
[20] = Saccharomyces cerevisiae, Table 3, strain ARE Y121F T289A, ± SD, read-out: MIC80
[21] = Saccharomyces cerevisiae, Table 3, strain ARE I301T, read-out: MIC80
[22] = Saccharomyces cerevisiae, Table 3
[23] = Saccharomyces cerevisiae, Table 3, read-out: MIC80
[24] = Saccharomyces cerevisiae, 48 h, pH 6.8

OC(Cn1cncn1)(Cn1cncn1)c1ccccc1 [MCC7915]
MIC80 ([1]; Table 3, strain ARE, ± SD): 427 ± 23 µM
reduced susceptibility compared to FLC ([1]; strain ARE): 2.5 fold
MIC80 [2, 14]: 180 ± 11 µM
MIC80 ([3]; Table 3, strain ARE T289A): 248 ± 23 µM
MIC80 [4, 15]: 219 ± 29 µM
MIC80 ([5]; Table 3, strain ARE I301T): 278 ± 45 µM
MIC80 ([6]; Table 3): 223 ± 79 µM
reduced susceptibility compared to FLC [6]: 50 fold

OC(Cn1cncn1)(Cn1cncn1)c1ccccc1F [MCC7916]
MIC80 ([1]; Table 3, strain ARE, ± SD): 120 ± 40 µM
MIC80 [2, 14]: 80 ± 17 µM
MIC80 ([3]; Table 3, strain ARE T289A): 52 ± 6 µM
MIC80 [4, 15]: 198 ± 41 µM
MIC80 ([5]; Table 3, strain ARE I301T): 51 ± 6 µM
MIC80 ([6]; Table 3): 21 ± 3 µM

OC(Cn1cncn1)(Cn1cncn1)c1ccc(F)cc1 [MCC7917]
MIC80 ([1]; Table 3, strain ARE, ± SD): 411 ± 30 µM
MIC80 [2, 14]: 179 ± 9 µM
MIC80 ([3]; Table 3, strain ARE T289A): 103 ± 11 µM
MIC80 [4, 15]: 242 ± 41 µM
MIC80 ([5]; Table 3, strain ARE I301T): 257 ± 37 µM
MIC80 ([6]; Table 3): 38 ± 11 µM

CCC(C)n1ncn(-c2ccc(N3CCN(c4ccc(OCC5COC(Cn6cncn6)(c6ccc(Cl)cc6Cl)O5)cc4)CC3)cc2)c1=O (centres unmarked) [ITC]
MIC80 [7]: 0.15 ± 0.01 µM
MIC80 [8]: 0.13 ± 0.01 µM

C[C@@H](c1nc(-c2ccc(C#N)cc2)cs1)[C@](O)(Cn1cncn1)c1ccc(F)cc1F [RVC, ravuconazole]
lower susceptibility of strain ARE compared to strain BRE [1]: 2 fold
MIC [1, 16]: < 0.0156 µM
MIC80 [1, 17]: 0.0088 ± 0.0023 µM
increase in resistance (MIC80) of strain Y121F compared with strain ARE [2]: 3- to 5 fold and 6 fold
MIC80 [2, 18]: 0.047 ± 0.005 µM
MIC80 [3, 19]: 0.0032 ± 0.0015 µM
increase in resistance (MIC80) of strain Y121F T289A compared with strain ARE [4]: 3- to 5 fold
MIC80 [4, 20]: 0.033 ± 0.006 µM
MIC80 [5, 21]: 0.0034 ± 0.0015 µM
MIC [6, 22]: < 0.0156 µM
MIC80 [6, 23]: 0.0038 ± 0.0008 µM

CC1COC(Cn2cncn2)(c2ccc(Oc3ccc(Cl)cc3)cc2Cl)O1 (centres unmarked) [DCZ, difenoconazole]
MIC80 [9]: < 0.01 µM
MIC80 [10, 24]: 0.04 ± 0.02 µM
MIC80 ([10]; Table 2, strain ADLS, SD pH 6.8, 48 h, 30 °C, ± SD): 0.04 ± 0.01 µM
MIC80 [11]: 0.01 µM
MIC80 [12]: 0.07 ± 0.01 µM
MIC80 [1, 24]: 0.64 ± 0.04 µM
increased susceptibility of AfCYP51A Y121F mutant (vs ARE) [2]: 2 fold
MIC80 [2, 24]: 0.37 ± 0.02 µM
greater susceptibility (MIC80) of strain T289A compared with strain ARE [3]: 64 fold
MIC80 ([3]; Saccharomyces cerevisiae, 48 h, pH 6.8, Table 2, strain T289A, SD pH 6.8, 48 h, 30 °C): < 0.01 µM
increase in resistance (MIC80) of strain Y121F T289A compared with strain ARE [4]: 1.5 fold
MIC80 [4, 24]: 0.92 ± 0.07 µM
MIC80 ([5]; Saccharomyces cerevisiae, 48 h, pH 6.8, Table 2, strain I301T, SD pH 6.8, 48 h, 30 °C): 0.35 ± 0.06 µM
MIC80 [13]: < 0.01 µM
MIC80 ([6]; Saccharomyces cerevisiae, Table 2, SD pH 6.8, 48 h, 30 °C, read-out: MIC80): < 0.01 µM
λpeak (type II difference spectrum) (AfCYP51B-6×His; 1 μM enzyme): 426 nm
λtrough (type II difference spectrum) (AfCYP51B-6×His; 1 μM enzyme): 410 nm
ΔAmax (type II binding) (AfCYP51B-6×His; 1 μM enzyme, Hill equation): 0.10
Hill Number (AfCYP51B-6×His; type II binding): 1.55
Kd (AfCYP51B-6×His; type II binding, 1 μM enzyme, Hill equation): 1.76 ± 0.08 µM

C[C@@H](c1nc(-c2ccc(C#N)cc2)cs1)[C@](O)(Cn1cncn1)c1cc(F)ccc1F [IVC, isavuconazole]
lower susceptibility of strain ARE compared to strain BRE [1]: 2 fold
MIC [1, 16]: < 0.0156 µM
MIC80 [1, 17]: 0.021 ± 0.007 µM
increase in resistance (MIC80) of strain Y121F compared with strain ARE [2]: 3- to 5 fold and 3 fold
MIC80 [2, 18]: 0.071 ± 0.014 µM
MIC80 [3, 19]: 0.0102 ± 0.0057 µM
increase in resistance (MIC80) of strain Y121F T289A compared with strain ARE [4]: 3- to 5 fold
MIC80 [4, 20]: 0.11 ± 0.011 µM
MIC80 [5, 21]: 0.0119 ± 0.0028 µM
MIC [6, 22]: < 0.0156 µM
MIC80 [6, 23]: 0.0109 ± 0.003 µM

OC(Cn1cncn1)(Cn1cncn1)c1cc(F)ccc1F [MCC8768]
MIC80 ([1]; Table 3, strain ARE, ± SD): 354 ± 76 µM
reduced susceptibility compared to FLC ([1]; strain ARE): ~ 3 fold
MIC80 [2, 14]: 324 ± 109 µM
MIC80 ([3]; Table 3, strain ARE T289A): 106 ± 28 µM
reduced susceptibility compared to FLC ([3]; strain T289A): > 6 fold
MIC80 [4, 15]: 1025 ± 148 µM
MIC80 ([5]; Table 3, strain ARE I301T): 211 ± 21 µM
reduced susceptibility compared to FLC ([5]; strain I301T): ~ 3 fold
MIC80 ([6]; Table 3): 25 ± 8 µM
reduced susceptibility compared to FLC [6]: > 6 fold
